Data: patent US20110250632A1 (priority 2008, published 2011)

System: adenylate cyclase
Assay: cAMP assay of cryopreserved AD293 cells, forskolin stimulation
Format: cell-based, human
Source text: As a control, rise in intracellular cAMP concentrations was also separately monitored when the ubiquitously expressed adenylate cyclase activity was challenged with its respective agonist forskolin. In the AD293 cell line only the adenylate cyclase activity was monitored.
As the DiscoveRx assay systems are designed to monitor intracellular cAMP concentrations the assay medium is supplemented with the general phosphodiesterase inhibitor isobutylmethylxanthine (IBMX) at a final concentration of 1 mM.
Forskolin assay—Forskolin (Sigma F6886-10 mg) was dissolved in DMSO to a stock concentration of 10 mM. This was then serially diluted using half-log dilutions to generate a final forskolin concentration range in the assay medium ranging from 316 μM-3.16 nM.
DiscoveRx HITHUNTER™ cAMP II assay—This was performed according to the manufacturer's instructions and briefly involved the following. On resurrection from storage at −140° C., cells frozen on cell culture treated 96-well plates were allowed to thaw. On defrosting the cryopreservation medium was removed and the cells washed twice with PBS. […]
Typically for an assay performed in a 96-well cell culture treated plate 20,000 cells were used. […] The assay plates were incubated at room temperature for 4 hrs and the cAMP concentration determined by monitoring the generation of the luminescent signal using the LEADSEEKER™ Instrument platform.

C=C[C@@]1(C)CC(=O)[C@]2(O)[C@@]3(C)[C@@H](O)CCC(C)(C)[C@@H]3[C@H](O)[C@H](OC(C)=O)[C@@]2(C)O1 [forskolin, Forskolin]
S:B (minus poly lysine): 2.5 | S:B (plus poly-lysine): 3.0
